Source: patent US7259140B2, “Heparin-binding peptides and uses thereof” (Thomas Jefferson University, priority 2003, dated 2007)
Ends that are not written are not given here.

Tested on: anti-Factor Xa activity of Lovenox®
Assay: In vivo neutralization of the LMWH Lovenox in rats (anti-Factor Xa assay of plasma)
Experimental: Experiments were performed to test the ability of heparin-binding peptides of the invention to neutralize low molecular weight heparins which are used clinically, such as Lovenox®. To this end, rats were cannulated in the jugular and femoral veins. Lovenox® was injected through the jugular vein, and three minutes later the peptide was injected via the jugular vein. The peptides tested included (ARKKAAKA)4 (SEQ ID NO:31), C(ARKKAAKA)4C (SEQ ID NO:34), (ARKKAAKA)3ARKKCAKA (SEQ ID NO:33), and (ARKKAAKA)3VLVLVLVL (SEQ ID NO:5). Blood was collected from the femoral vein. 0.1 ml was collected at each time point. Plasma was prepared from each tube, and the anti-Factor Xa assay was performed.
Results. The dose response of each peptide from 2 mg/300 gm to 0.5 mg/300 gm was tested and a representative dose (1.0 mg) is shown in FIG. 4. […] The absorbance is inversely proportional to the heparin concentration. There is no heparin present when A405=0.7, and about 1 U/ml when A405=0.4. The events at the arrows are indicated in the box insert.

With “ARKKAAKAARKKAAKAARKKAAKAVLVLVLVL [(ARKKAAKA)3VLVLVLVL]” the “rank in in vivo neutralization of Lovenox” value was “most effective at the lowest dose”.
